# “And” between values parts separate entries of the source, which are not always exact repeats. Equal entries are not always repeated. Toxic doses and inconclusive results are not listed.
# System: P388 leukemia ip, CD2F1 mice, survival T/C
# Assay: NCI In Vivo Anticancer Drug Screen. Data for tumor model P388 Leukemia (intraperitoneal) in CD2F1 (CDF1) mice
# Conditions: endpoint: median survival time, higher = longer survival
# Procedure, shortened: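 Mice carrying the transplanted tumor received test compound or vehicle. Survival was recorded in each group, and the value is the treated-group measurement divided by that of the vehicle-treated control group.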
# [1] = dose: 50.0 mg/kg/injection, schedule: Q01DX005 (ip), vehicle: Klucel (hydroxypropylcellulose) (HPC)
# [2] = dose: 100.0 mg/kg/injection, schedule: Q01DX005 (ip), vehicle: Klucel (hydroxypropylcellulose) (HPC)
# [3] = dose: 200.0 mg/kg/injection, schedule: Q01DX005 (ip), vehicle: Klucel (hydroxypropylcellulose) (HPC)
# [4] = dose: 60.0 mg/kg/injection, schedule: Q01DX005 (ip), vehicle: saline with Tween-80
# [5] = dose: 120.0 mg/kg/injection, schedule: Q01DX005 (ip), vehicle: saline with Tween-80
# [6] = dose: 50.0 mg/kg/injection, schedule: Q01DX005 (ip), vehicle: saline with Tween-80
# [7] = dose: 100.0 mg/kg/injection, schedule: Q01DX005 (ip), vehicle: saline with Tween-80
# [8] = dose: 200.0 mg/kg/injection, schedule: Q01DX005 (ip), vehicle: saline with Tween-80
compound,measurement,setting,value
C[C@]12CC[C@H](OC(=O)Cc3ccc(N(CCCl)CCCl)cc3)CC1=CC[C@@H]1[C@@H]2CC[C@]2(C)C(=O)CC[C@@H]12,T/C,"dose: 16.0 mg/kg/injection, schedule: Q03HX024 (ip), vehicle: saline",95 % of control
same,T/C,"dose: 32.0 mg/kg/injection, schedule: Q03HX008 (ip), vehicle: saline",90 % of control
same,T/C,"dose: 32.0 mg/kg/injection, schedule: Q03HX016 (ip), vehicle: saline",100 % of control
same,T/C,"dose: 32.0 mg/kg/injection, schedule: Q03HX024 (ip), vehicle: saline",90 % of control
same,T/C,"dose: 64.0 mg/kg/injection, schedule: Q01DX009 (ip), vehicle: saline",100 % of control
same,T/C,"dose: 64.0 mg/kg/injection, schedule: Q01DX009 (sc), vehicle: saline",104 % of control
same,T/C,"dose: 64.0 mg/kg/injection, schedule: Q03HX008 (ip), vehicle: saline",109 % of control
same,T/C,"dose: 64.0 mg/kg/injection, schedule: Q03HX016 (ip), vehicle: saline",109 % of control
same,T/C,"dose: 64.0 mg/kg/injection, schedule: Q03HX024 (ip), vehicle: saline",109 % of control
same,T/C,"dose: 128.0 mg/kg/injection, schedule: Q01DX009 (ip), vehicle: saline",95 % of control
same,T/C,"dose: 128.0 mg/kg/injection, schedule: Q01DX009 (sc), vehicle: saline",109 % of control
same,T/C,"dose: 128.0 mg/kg/injection, schedule: Q03HX008 (ip), vehicle: saline",168 % of control
same,T/C,"dose: 128.0 mg/kg/injection, schedule: Q03HX016 (ip), vehicle: saline",154 % of control
same,T/C,"dose: 128.0 mg/kg/injection, schedule: Q03HX024 (ip), vehicle: saline",100 % of control
same,T/C,"dose: 128.0 mg/kg/injection, schedule: Q04DX003 (ip), vehicle: saline",100 % of control
same,T/C,"dose: 200.0 mg/kg/injection, schedule: Q04DX003 (ip), vehicle: saline with Tween-80",150 % of control
same,T/C,"dose: 256.0 mg/kg/injection, schedule: Q01DX001 (ip), vehicle: saline",100 % of control
same,T/C,"dose: 256.0 mg/kg/injection, schedule: Q01DX001 (sc), vehicle: saline",100 % of control
same,T/C,"dose: 256.0 mg/kg/injection, schedule: Q01DX009 (oral), vehicle: saline",109 % of control
same,T/C,"dose: 256.0 mg/kg/injection, schedule: Q01DX009 (sc), vehicle: saline",118 % of control
same,T/C,"dose: 256.0 mg/kg/injection, schedule: Q03HX008 (ip), vehicle: saline",122 % of control
same,T/C,"dose: 256.0 mg/kg/injection, schedule: Q04DX003 (ip), vehicle: saline",100 % of control
same,T/C,"dose: 256.0 mg/kg/injection, schedule: Q08DX002 (ip), vehicle: saline",100 % of control
same,T/C,"dose: 264.0 mg/kg/injection, schedule: Q04DX003 (ip), vehicle: saline with Tween-80",179 % of control
same,T/C,"dose: 400.0 mg/kg/injection, schedule: Q04DX003 (ip), vehicle: saline with Tween-80",183 % of control and 200 % of control
same,T/C,"dose: 512.0 mg/kg/injection, schedule: Q01DX001 (ip), vehicle: saline",104 % of control
same,T/C,"dose: 512.0 mg/kg/injection, schedule: Q01DX001 (sc), vehicle: saline",104 % of control
same,T/C,"dose: 512.0 mg/kg/injection, schedule: Q01DX009 (ip), vehicle: saline",150 % of control
same,T/C,"dose: 512.0 mg/kg/injection, schedule: Q01DX009 (oral), vehicle: saline",113 % of control
same,T/C,"dose: 512.0 mg/kg/injection, schedule: Q04DX003 (ip), vehicle: saline",122 % of control
same,T/C,"dose: 512.0 mg/kg/injection, schedule: Q08DX002 (ip), vehicle: saline",118 % of control
same,T/C,"dose: 600.0 mg/kg/injection, schedule: Q04DX003 (ip), vehicle: saline with Tween-80",112 % of control
same,T/C,"dose: 1024.0 mg/kg/injection, schedule: Q01DX001 (ip), vehicle: saline",118 % of control
same,T/C,"dose: 1024.0 mg/kg/injection, schedule: Q01DX001 (sc), vehicle: saline",118 % of control
same,T/C,"dose: 1024.0 mg/kg/injection, schedule: Q01DX009 (oral), vehicle: saline",109 % of control
same,T/C,"dose: 1024.0 mg/kg/injection, schedule: Q04DX003 (ip), vehicle: saline",163 % of control
same,T/C,"dose: 1024.0 mg/kg/injection, schedule: Q08DX002 (ip), vehicle: saline",159 % of control
same,T/C,"dose: 2048.0 mg/kg/injection, schedule: Q01DX001 (ip), vehicle: saline",109 % of control
same,T/C,"dose: 2048.0 mg/kg/injection, schedule: Q01DX009 (oral), vehicle: saline",118 % of control
same,T/C,"dose: 2048.0 mg/kg/injection, schedule: Q08DX002 (ip), vehicle: saline",90 % of control
CC(C)CC(C(=O)O)N1C(=O)c2ccccc2C1=O (stereo not given),T/C,[1],98 % of control
same,T/C,[2],100 % of control
same,T/C,[3],95 % of control
CC(C)Sc1nc(NC(=O)N(CCCl)N=O)cc(=O)[nH]1,T/C,"dose: 12.5 mg/kg/injection, schedule: Q01DX005 (ip), vehicle: Klucel (hydroxypropylcellulose) (HPC)",152 % of control
C1CC(CCC2CCNCC2)CCN1,T/C,"dose: 25.0 mg/kg/injection, schedule: Q01DX009 (ip), vehicle: saline",96 % of control
same,T/C,"dose: 50.0 mg/kg/injection, schedule: Q01DX009 (ip), vehicle: saline",97 % of control
Oc1c(O)c(Br)c(Br)c(Br)c1Br,T/C,"dose: 100.0 mg/kg/injection, schedule: Q01DX009 (ip), vehicle: saline",107 % of control and 95 % of control
same,T/C,"dose: 200.0 mg/kg/injection, schedule: Q01DX009 (ip), vehicle: saline",111 % of control
[Cl][Pt+2][Cl].[NH-]C(C(=O)O)C([NH-])C(=O)O (stereo not given),T/C,"dose: 6.25 mg/kg/injection, schedule: Q04DX002 (ip), vehicle: saline",96 % of control
same,T/C,"dose: 12.5 mg/kg/injection, schedule: Q04DX002 (ip), vehicle: saline",96 % of control
same,T/C,"dose: 25.0 mg/kg/injection, schedule: Q04DX002 (ip), vehicle: saline",100 % of control
same,T/C,"dose: 50.0 mg/kg/injection, schedule: Q04DX002 (ip), vehicle: saline",117 % of control
same,T/C,"dose: 100.0 mg/kg/injection, schedule: Q04DX002 (ip), vehicle: saline",101 % of control
same,T/C,"dose: 200.0 mg/kg/injection, schedule: Q04DX002 (ip), vehicle: saline",97 % of control
COc1nc(NC2OC(CO)C(O)C2O)cc(=O)n1C (stereo not given),T/C,[4],93 % of control
same,T/C,[5],94 % of control
O=C(CNC(=O)c1ccccc1)N/N=C\c1c[nH]c2ccccc12,T/C,[4],101 % of control
same,T/C,[5],100 % of control
same,T/C,"dose: 240.0 mg/kg/injection, schedule: Q01DX005 (ip), vehicle: saline with Tween-80",96 % of control
O=S(=O)(O)c1ccc(OCCCCCCCCOc2ccc(S(=O)(=O)O)cc2)cc1,T/C,"dose: 50.0 mg/kg/injection, schedule: Q01DX005 (ip), vehicle: saline",112 % of control
same,T/C,"dose: 100.0 mg/kg/injection, schedule: Q01DX005 (ip), vehicle: saline",109 % of control
same,T/C,"dose: 200.0 mg/kg/injection, schedule: Q01DX005 (ip), vehicle: saline",100 % of control
Cc1cc(OC(=O)c2ccccc2OS(N)(=O)=O)ccc1Cl,T/C,"dose: 60.0 mg/kg/injection, schedule: Q01DX005 (ip), vehicle: Klucel (hydroxypropylcellulose) (HPC)",98 % of control
same,T/C,"dose: 120.0 mg/kg/injection, schedule: Q01DX005 (ip), vehicle: Klucel (hydroxypropylcellulose) (HPC)",97 % of control
same,T/C,"dose: 240.0 mg/kg/injection, schedule: Q01DX005 (ip), vehicle: Klucel (hydroxypropylcellulose) (HPC)",94 % of control
O=C(c1ccc([N+](=O)[O-])cc1)c1cnc2nc(-c3ccccc3)c(-c3ccccc3)nn12,T/C,"dose: 12.5 mg/kg/injection, schedule: Q01DX005 (ip), vehicle: saline with Tween-80",99 % of control
same,T/C,"dose: 25.0 mg/kg/injection, schedule: Q01DX005 (ip), vehicle: saline with Tween-80",97 % of control
same,T/C,[6],88 % of control and 93 % of control
same,T/C,[7],89 % of control
same,T/C,[8],96 % of control
CCOc1cc2c(cc1C/C=C/c1ccccc1)OCO2,T/C,[6],100 % of control
same,T/C,[7],110 % of control
same,T/C,[8],101 % of control
C=C(C)C1CC=C(C)C(SCCN(CC)CC)C1 (stereo not given),T/C,[1],104 % of control
same,T/C,[2],109 % of control
same,T/C,[3],118 % of control
O=C(Nc1ccccc1)P(=O)(O)c1ccccc1,T/C,"dose: 12.5 mg/kg/injection, schedule: Q01DX009 (ip), vehicle: Klucel (hydroxypropylcellulose) (HPC)",93 % of control
same,T/C,"dose: 25.0 mg/kg/injection, schedule: Q01DX009 (ip), vehicle: Klucel (hydroxypropylcellulose) (HPC)",100 % of control
same,T/C,"dose: 50.0 mg/kg/injection, schedule: Q01DX009 (ip), vehicle: Klucel (hydroxypropylcellulose) (HPC)",97 % of control
same,T/C,"dose: 100.0 mg/kg/injection, schedule: Q01DX009 (ip), vehicle: Klucel (hydroxypropylcellulose) (HPC)",93 % of control

# Reference: PubChem BioAssay AID330 (DTP/NCI, 2004)
